Laboratory results taken from patent US10981926B2 (Janssen Pharmaceutica NV, priority 2016, dated 2021).

Key:
Format in all cases: cell-based
[1] = molecular target: T1, F876L mutant Androgen Receptor (AR-F876L) (Homo sapiens (Human), UniProt P10275, F877L); assay: LNCaP-AR-F876L AG reporter assay (agonist mode); details: for LNCaP-AR-F876L AG pEC50 / EC50: agonist mode, pEC50 = −Log10(EC50 in Molar); for Emax: maximum % stimulation (agonist response) over the tested concentration range, read-out: LNCaP-AR-F876L AG MAX % Stim; for EC50: read-out: LNCaP-AR-F876L AG pEC50 (converted)
[2] = molecular target: T1, F876L mutant Androgen Receptor (AR-F876L); assay: LNCaP-AR-F876L ANT reporter assay (antagonist mode); details: for LNCaP-AR-F876L ANT pIC50 / IC50: antagonist mode, pIC50 = −Log10(IC50 in Molar); for Emax: maximum % inhibition of R1881 control response over the tested concentration range, read-out: LNCaP-AR-F876L ANT MAX % Inh; for IC50: read-out: LNCaP-AR-F876L ANT pIC50 (converted)
[3] = molecular target: T2, wild-type Androgen Receptor (AR-wt) (Homo sapiens (Human), UniProt P10275); assay: LNCaP-AR-wt AG reporter assay (agonist mode); details: for LNCaP-AR-wt AG pEC50 / EC50: agonist mode, pEC50 = −Log10(EC50 in Molar); for Emax: maximum % stimulation (agonist response) over the tested concentration range, read-out: LNCaP-AR-wt AG MAX % Stim; for EC50: read-out: LNCaP-AR-wt AG pEC50 (converted)
[4] = molecular target: T2, wild-type Androgen Receptor (AR-wt); assay: LNCaP-AR-wt ANT reporter assay (antagonist mode); details: for LNCaP-AR-wt ANT pIC50 / IC50: antagonist mode, pIC50 = −Log10(IC50 in Molar); for Emax: maximum % inhibition of R1881 control response over the tested concentration range, read-out: LNCaP-AR-wt ANT MAX % Inh; for IC50: read-out: LNCaP-AR-wt ANT pIC50 (converted)

T1 sequence (P10275 whole entry F877L): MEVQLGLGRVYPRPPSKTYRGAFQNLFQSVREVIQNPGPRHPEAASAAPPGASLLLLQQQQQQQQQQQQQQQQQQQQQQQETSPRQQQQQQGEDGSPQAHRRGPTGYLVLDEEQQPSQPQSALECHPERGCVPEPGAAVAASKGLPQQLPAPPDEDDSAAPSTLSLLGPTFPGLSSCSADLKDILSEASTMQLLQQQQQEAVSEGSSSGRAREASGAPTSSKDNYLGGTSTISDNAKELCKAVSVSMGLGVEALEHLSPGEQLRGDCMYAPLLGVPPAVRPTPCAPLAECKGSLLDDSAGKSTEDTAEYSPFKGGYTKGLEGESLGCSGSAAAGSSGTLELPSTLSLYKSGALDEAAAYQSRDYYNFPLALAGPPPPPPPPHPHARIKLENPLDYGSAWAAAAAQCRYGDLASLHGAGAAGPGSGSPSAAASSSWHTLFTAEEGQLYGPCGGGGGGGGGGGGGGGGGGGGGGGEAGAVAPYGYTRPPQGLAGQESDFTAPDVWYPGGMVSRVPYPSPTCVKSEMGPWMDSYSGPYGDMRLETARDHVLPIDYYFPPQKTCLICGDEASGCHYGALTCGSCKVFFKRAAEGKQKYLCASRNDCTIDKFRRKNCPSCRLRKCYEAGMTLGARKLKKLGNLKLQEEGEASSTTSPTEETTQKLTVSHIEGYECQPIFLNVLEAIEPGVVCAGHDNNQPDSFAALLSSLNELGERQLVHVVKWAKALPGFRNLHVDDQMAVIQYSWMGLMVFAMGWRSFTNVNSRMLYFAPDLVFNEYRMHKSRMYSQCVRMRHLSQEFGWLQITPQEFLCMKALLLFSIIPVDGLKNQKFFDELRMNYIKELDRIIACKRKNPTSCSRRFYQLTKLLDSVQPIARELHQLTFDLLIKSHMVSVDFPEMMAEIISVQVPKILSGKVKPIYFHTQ
T2 sequence (P10275 whole entry): as the sequence (P10275 whole entry F877L) above, with L877F counted along it

| Emax [1] [%] | Emax [2] [%] | Emax [3] [%] | Emax [4] [%] | EC50 [1] [nM] | IC50 [2] [nM] | EC50 [3] [nM] | IC50 [4] [nM] | Compound | LNCaP-AR-F876L AG pEC50 [1] | LNCaP-AR-F876L ANT pIC50 [2] | LNCaP-AR-wt AG pEC50 [3] | LNCaP-AR-wt ANT pIC50 [4] |
| --- | --- | --- | --- | --- | --- | --- | --- | --- | --- | --- | --- | --- |
| 0.5 | 103 | 0.3 | 103 | > 15100 | 39.8 | > 15100 | 115 | CC(=O)N1CCC(Cn2ncc3cc(N4C(=S)N(c5cnc(C#N)c(C(F)(F)F)c5)C(=O)C45CCC5)ccc32)CC1 [Cpd 124, 5-[8-[1-[(1-acetyl-4-piperidyl)methyl]indazol-5-yl]-5-oxo-7-thioxo-6,8-diazaspiro[3.4]octan-6-yl]-3-(trifluoromethyl)pyridine-2-carbonitrile] |  |  |  |  |
| 0.8 | 100 | 0.2 | 101 | > 15100 | 204 | > 15100 | 275 | N#Cc1ncc(N2C(=O)C3(CCC3)N(c3ccc4nn(CC5CCNCC5)cc4c3)C2=S)cc1C(F)(F)F [Cpd 126, 5-[5-oxo-8-[2-(4-piperidylmethyl)indazol-5-yl]-7-thioxo-6,8-diazaspiro[3.4]octan-6-yl]-3-(trifluoromethyl)pyridine-2-carbonitrile] |  |  |  |  |
| 0.3 | 101 | 0.2 | 101 | > 15100 | 468 | > 15100 | 1070 | N#Cc1ncc(N2C(=O)C3(CCC3)N(c3ccc4c(cnn4CC4CCNCC4)c3)C2=S)cc1C(F)(F)F [Cpd 128, 5-(8-Oxo-5-(1-(piperidin-4-ylmethyl)-1H-indazol-5-yl)-6-thioxo-5,7-diazaspiro[3.4]octan-7-yl)-3-(trifluoromethyl)picolinonitrile] |  |  |  |  |
| 0.9 | 98.7 | 0.5 | 101 | > 15100 | 148 | > 15100 | 372 | CN1CCC(Cn2ncc3cc(N4C(=S)N(c5cnc(C#N)c(C(F)(F)F)c5)C(=O)C45CCC5)ccc32)CC1 [Cpd 132, 5-(5-(1-((1-methylpiperidin-4-yl)methyl)-1H-indazol-5-yl)-8-oxo-6-thioxo-5,7-diazaspiro[3.4]octan-7-yl)-3-(trifluoromethyl)picolinonitrile] |  |  |  |  |
|  |  |  |  | > 15100 | 339 | > 15100 | 759 | N#Cc1ncc(N2C(=O)C3(CCC3)N(C3CCC(NC(=O)c4ccccc4)CC3)C2=S)cc1C(F)(F)F (stereo not drawn) [Cpd 134, N-[4-[6-[6-cyano-5-(trifluoromethyl)-3-pyridyl]-5-oxo-7-thioxo-6,8-diazaspiro[3.4]octan-8-yl]cyclohexyl]benzamide] |  |  |  |  |
| 0.1 | 99.8 | 1.2 | 102 | > 15100 | 513 | > 15100 | 589 | N#Cc1ncc(N2C(=O)C3(CCC3)N(c3ccc(OC4C5CCC4CNC5)nc3)C2=S)cc1C(F)(F)F (stereo not drawn) [Cpd 139, 5-[8-[6-(3-azabicyclo[3.2.1]octan-8-yloxy)-3-pyridyl]-5-oxo-7-thioxo-6,8-diazaspiro[3.4]octan-6-yl]-3-(trifluoromethyl)pyridine-2-carbonitrile] |  |  |  |  |
| 0 | 99.5 | 0.3 | 99.9 | > 15100 | 339 | > 15100 | 1000 | CC1(Oc2ccc(N3C(=S)N(c4cnc(C#N)c(C(F)(F)F)c4)C(=O)C34CCC4)cc2)CCNCC1 [Cpd 140, 5-[8-[4-[(4-methyl-4-piperidyl)oxy]phenyl]-5-oxo-7-thioxo-6,8-diazaspiro[3.4]octan-6-yl]-3-(trifluoromethyl)pyridine-2-carbonitrile] |  |  |  |  |
| 0.8 | 99 | -0.2 | 101 | > 15100 | 117 | > 15100 | 112 | CN1CC(CCOc2ccc(N3C(=S)N(c4cnc(C#N)c(C(F)(F)F)c4)C(=O)C34CCC4)cc2)C1 [Cpd 142, 5-[8-[4-[2-(1-methylazetidin-3-yl)ethoxy]phenyl]-5-oxo-7-thioxo-6,8-diazaspiro[3.4]octan-6-yl]-3-(trifluoromethyl)pyridine-2-carbonitrile] |  |  |  |  |
| 0.4 | 101 | -0.2 | 103 | > 15100 | 355 | > 15100 | 1350 | CN1CCC(C)(Oc2ccc(N3C(=S)N(c4cnc(C#N)c(C(F)(F)F)c4)C(=O)C34CCC4)cc2)CC1 [Cpd 143, 5-[8-[4-[(1,4-dimethyl-4-piperidyl)oxy]phenyl]-5-oxo-7-thioxo-6,8-diazaspiro[3.4]octan-6-yl]-3-(trifluoromethyl)pyridine-2-carbonitrile] |  |  |  |  |
| 1.8 | 98.8 | 0.5 | 101 | > 15100 | 302 | > 15100 | 178 | N#Cc1ncc(N2C(=O)C3(CCC3)N(c3ccc(OCC4(N)COC4)cc3)C2=S)cc1C(F)(F)F [Cpd 145, 5-[8-[4-[(3-aminooxetan-3-yl)methoxy]phenyl]-5-oxo-7-thioxo-6,8-diazaspiro[3.4]octan-6-yl]-3-(trifluoromethyl)pyridine-2-carbonitrile] |  |  |  |  |
| -0.1 | 101 | 0.1 | 103 | > 15100 | 61.7 | > 15100 | 100 | CN1CC2CCC(C1)C2Oc1ccc(N2C(=S)N(c3cnc(C#N)c(C(F)(F)F)c3)C(=O)C23CCC3)cc1 (stereo not drawn) [Cpd 146, 5-[8-[4-[(3-methyl-3-azabicyclo[3.2.1]octan-8-yl)oxy]phenyl]-5-oxo-7-thioxo-6,8-diazaspiro[3.4]octan-6-yl]-3-(trifluoromethyl)pyridine-2-carbonitrile] |  |  |  |  |
| -0.1 | 101 | -0.1 | 102 | > 15100 | 209 | > 15100 | 224 | CN1CC2CCC(C1)C2Oc1ccc(N2C(=S)N(c3cnc(C#N)c(C(F)(F)F)c3)C(=O)C23CCC3)cn1 (stereo not drawn) [Cpd 147, 5-[8-[6-[(3-methyl-3-azabicyclo[3.2.1]octan-8-yl)oxy]-3-pyridyl]-5-oxo-7-thioxo-6,8-diazaspiro[3.4]octan-6-yl]-3-(trifluoromethyl)pyridine-2-carbonitrile] |  |  |  |  |
| -0.2 | 103 | 0.4 | 102 | > 15100 | 245 | > 15100 | 490 | N#Cc1ncc(N2C(=O)C3(CCC3)N(c3ccc(OC4CC5CC4CN5)cc3)C2=S)cc1C(F)(F)F [Cpd 150, (R,S)-5-[8-[4-(2-azabicyclo[2.2.1]heptan-5-yloxy)phenyl]-5-oxo-7-thioxo-6,8-diazaspiro[3.4]octan-6-yl]-3-(trifluoromethyl)pyridine-2-carbonitrile] |  |  |  |  |
| -0.1 | 100 | 0.1 | 101 | > 15100 | 339 | > 15100 | 398 | CC(C)(C)OC(=O)N1CCC12CC(Oc1ccc(N3C(=S)N(c4cnc(C#N)c(C(F)(F)F)c4)C(=O)C34CCC4)cn1)C2 (stereo not drawn) [Cpd 153, tert-butyl 6-[[5-[6-[6-cyano-5-(trifluoromethyl)-3-pyridyl]-5-oxo-7-thioxo-6,8-diazaspiro[3.4]octan-8-yl]-2-pyridyl]oxy]-3-azaspiro[3.3]heptane-3-carboxylate] |  |  |  |  |

| Compound | Emax [1] [%] | Emax [2] [%] | Emax [3] [%] | Emax [4] [%] | EC50 [1] [nM] | IC50 [2] [nM] | EC50 [3] [nM] | IC50 [4] [nM] | LNCaP-AR-F876L AG pEC50 [1] | LNCaP-AR-F876L ANT pIC50 [2] | LNCaP-AR-wt AG pEC50 [3] | LNCaP-AR-wt ANT pIC50 [4] |
| --- | --- | --- | --- | --- | --- | --- | --- | --- | --- | --- | --- | --- |
| N#Cc1ncc(N2C(=O)C3(CCC3)N(c3ccc(C4CC5CCC(C4)N5)cc3)C2=S)cc1C(F)(F)F (stereo not drawn) [Cpd 123, 5-(5-(4-(8-azabicyclo[3.2.1]octan-3-yl)phenyl)-8-oxo-6-thioxo-5,7-diazaspiro[3.4]octan-7-yl)-3-(trifluoromethyl)picolinonitrile] | 0.2 | 102 | 0.3 | 103 |  |  |  |  | <4.82 | 6.03 | <4.82 | 5.64 |
| CN1CCc2cc(N3C(=S)N(c4cnc(C#N)c(C(F)(F)F)c4)C(=O)C34CCC4)ccc2C1 [Cpd 125, 5-[8-(2-methyl-3,4-dihydro-1H-isoquinolin-6-yl)-5-oxo-7-thioxo-6,8-diazaspiro[3.4]octan-6-yl]-3-(trifluoromethyl)pyridine-2-carbonitrile] | 0 | 98.1 | 0.6 | 99.5 | > 15100 | 1580 | > 15100 | 2690 |  |  |  |  |
| CN1C2C=C(c3ccc(N4C(=S)N(c5cnc(C#N)c(C(F)(F)F)c5)C(=O)C45CCC5)cc3)CC1CC2 (stereo not drawn) [Cpd 127, 5-[8-[4-(8-methyl-8-azabicyclo[3.2.1]oct-3-en-3-yl)phenyl]-5-oxo-7-thioxo-6,8-diazaspiro[3.4]octan-6-yl]-3-(trifluoromethyl)pyridine-2-carbonitrile] | 0.4 | 102 | 0.5 | 102 |  |  |  |  | <4.82 | 6.37 | <4.82 | 6.23 |
